Data from ChEMBL document CHEMBL4316596, “Antimicrobial Peptides with High Proteolytic Resistance for Combating Gram-Negative Bacteria” (J Med Chem, 2019).
In brackets after ≈: the same amount, converted by molar mass. Activity calls are given as the source filed them. The calls are words filed in the database; no cut-off is given here.

How the values were obtained:
Pseudomonas aeruginosa [1] = experiment: Antimicrobial activity against Pseudomonas aeruginosa 26305 clinical isolates after 24 hrs by NCCLS-protocol based assay; assay type: functional; conditions: Pseudomonas aeruginosa, 26305, 24 h
Pseudomonas aeruginosa [2] = experiment: Antimicrobial activity against Pseudomonas aeruginosa 25349 clinical isolates after 24 hrs by NCCLS-protocol based assay; assay type: functional; conditions: Pseudomonas aeruginosa, 25349, 24 h
Salmonella typhimurium [3] = experiment: Antimicrobial activity against Salmonella typhimurium C7731 after 24 hrs by NCCLS-protocol based assay; assay type: functional, Salmonella enterica subsp. enterica serovar Typhimurium; conditions: Salmonella enterica, C7731, 24 h
Acinetobacter baumannii = experiment: Antimicrobial activity against Acinetobacter baumannii after 24 hrs by NCCLS-protocol based assay; assay type: functional
HEK-293T = experiment: Cytotoxicity against HEK293T cells assessed as cell death after 18 to 24 hrs by MTT assay; assay type: cell-based; conditions: Homo sapiens
[4] = Selectivity ratio of HC10 for human RBC to geometric mean of the peptide MBC for bacteria
[5] = Selectivity ratio of IC50 for HEK293T cells to geometric mean of the peptide MBC for bacteria
[6] = Selectivity ratio of IC50 for pig IPECJ2 cells to geometric mean of the peptide MBC for bacteria
Escherichia coli [7] = experiment: Bactericidal activity against Escherichia coli ATCC 25922 incubated for 4 hrs followed by culture spread on agar plates and cultured overnight in presence of NaCl; assay type: functional; conditions: ATCC 25922, 4 h, read-out: MBC>99.9
Escherichia coli [8] = experiment: Bactericidal activity against Escherichia coli ATCC 25922 incubated for 4 hrs followed by culture spread on agar plates and cultured overnight in presence of CaCl2; assay type: functional; conditions: ATCC 25922, 4 h, read-out: MBC>99.9
Escherichia coli [9] = experiment: Bactericidal activity against Escherichia coli ATCC 25922 incubated for 4 hrs followed by culture spread on agar plates and cultured overnight in presence of FeCl3; assay type: functional; conditions: ATCC 25922, 4 h, read-out: MBC>99.9
Escherichia coli [10] = experiment: Bactericidal activity against Escherichia coli ATCC 25922 incubated for 4 hrs followed by culture spread on agar plates and cultured overnight in presence of NH4Cl; assay type: functional; conditions: ATCC 25922, 4 h, read-out: MBC>99.9
Escherichia coli [11] = experiment: Bactericidal activity against Escherichia coli ATCC 25922 incubated for 4 hrs followed by culture spread on agar plates and cultured overnight in presence of MgCl2; assay type: functional; conditions: ATCC 25922, 4 h, read-out: MBC>99.9
Escherichia coli [12] = experiment: Bactericidal activity against Escherichia coli ATCC 25922 incubated for 4 hrs followed by culture spread on agar plates and cultured overnight in presence of 50% serum albumin; assay type: functional; conditions: ATCC 25922, 4 h, read-out: MBC>99.9
Escherichia coli [13] = experiment: Bactericidal activity against Escherichia coli ATCC 25922 incubated for 4 hrs followed by culture spread on agar plates and cultured overnight in presence of 2 mg/ml trypsin; assay type: functional; conditions: ATCC 25922, 4 h, read-out: MBC>99.9
Escherichia coli [14] = experiment: Bactericidal activity against Escherichia coli ATCC 25922 incubated for 4 hrs followed by culture spread on agar plates and cultured overnight in presence of 1 mg/ml trypsin; assay type: functional; conditions: ATCC 25922, 4 h, read-out: MBC>99.9
Escherichia coli [15] = experiment: Bactericidal activity against Escherichia coli ATCC 25922 incubated for 4 hrs followed by culture spread on agar plates and cultured overnight in presence of 1 mg/ml chymotrypsin; assay type: functional; conditions: ATCC 25922, 4 h, read-out: MBC>99.9
Escherichia coli [16] = experiment: Bactericidal activity against Escherichia coli ATCC 25922 incubated for 4 hrs followed by culture spread on agar plates and cultured overnight in presence of 0.25 mg/ml chymotrypsin; assay type: functional; conditions: ATCC 25922, 4 h, read-out: MBC>99.9
Escherichia coli [17] = experiment: Induction of cytoplasmic membrane depolarization in Escherichia coli ATCC 25922 at 2 uM up to 5000 secs by DiSC3-5 dye-based fluorescence spectrophotometric method; assay type: functional, organism-based
Escherichia coli [18] = experiment: Bactericidal activity against Escherichia coli 078 incubated for 4 hrs followed by culture spread on agar plates and cultured overnight; assay type: functional; conditions: Escherichia coli, 078, 4 h; read-out: MBC>99.9
Pseudomonas aeruginosa [19] = experiment: Bactericidal activity against Pseudomonas aeruginosa ATCC 27853 incubated for 4 hrs followed by culture spread on agar plates and cultured overnight; assay type: functional; conditions: ATCC 27853, 4 h, read-out: MBC>99.9
Pseudomonas aeruginosa [20] = experiment: Bactericidal activity against Pseudomonas aeruginosa PAO1 incubated for 4 hrs followed by culture spread on agar plates and cultured overnight; assay type: functional; conditions: PAO1, 4 h, read-out: MBC>99.9
Pseudomonas aeruginosa [21] = experiment: Bactericidal activity against Pseudomonas aeruginosa 26305 clinical isolates incubated for 4 hrs followed by culture spread on agar plates and cultured overnight; assay type: functional; conditions: Pseudomonas aeruginosa, 26305, 4 h; read-out: MBC>99.9
Pseudomonas aeruginosa [22] = experiment: Bactericidal activity against Pseudomonas aeruginosa CICC 21625 clinical isolates incubated for 4 hrs followed by culture spread on agar plates and cultured overnight; assay type: functional; conditions: CICC 21625, 4 h, read-out: MBC>99.9
Pseudomonas aeruginosa [23] = experiment: Bactericidal activity against Pseudomonas aeruginosa 25349 clinical isolates incubated for 4 hrs followed by culture spread on agar plates and cultured overnight; assay type: functional; conditions: Pseudomonas aeruginosa, 25349, 4 h; read-out: MBC>99.9
Salmonella typhimurium [24] = experiment: Bactericidal activity against Salmonella typhimurium ATCC 14028 incubated for 4 hrs followed by culture spread on agar plates and cultured overnight; assay type: functional, Salmonella enterica subsp. enterica serovar Typhimurium; conditions: Salmonella enterica, ATCC 14028, 4 h; read-out: MBC>99.9
Escherichia coli [25] = experiment: Induction of cytoplasmic membrane depolarization in Escherichia coli ATCC 25922 assessed as induction cytoplasmic ONPG release at 2 to 16 uM up to 120 mins by DiSC3-5 dye-based fluorescence spectrophotometric method; assay type: functional, organism-based
[26] = Cytotoxicity against IPECJ2 cells assessed as cell death after 18 to 24 hrs by MTT assay; assay type: cell-based; conditions: Sus scrofa, IPEC-J2
Escherichia coli [27] = experiment: Bactericidal activity against Escherichia coli ATCC 25922 incubated for 4 hrs followed by culture spread on agar plates and cultured overnight in presence of 0.125 to 4 mg/ml proteinase K; assay type: functional, organism-based
[28] = Hemolytic activity against human RBC at 1 to 128 uM after 1 hr; assay type: ADME, cell-based, Erythrocyte; conditions: red blood cells (erythrocytes), read-out: Activity
Trypsin = Trypsin (Homo sapiens, UniProt P07477+P07478+P35030); experiment: Stability of the compound assessed as trypsin (unknown origin)-mediated compound hydrolysis after 8 hrs by SDS-PAGE analysis; assay type: ADME, protein assay
Chymotrypsin = Chymotrypsin (Homo sapiens, UniProt Q99895+P17538+P40313+Q6GPI1); experiment: Stability of the compound assessed as chymotrypsin (unknown origin)-mediated compound hydrolysis after 8 hrs by SDS-PAGE analysis; assay type: ADME, protein assay
[29] = Stability of the compound assessed as Tritirachium album proteinase K-mediated compound hydrolysis after 8 hrs by SDS-PAGE analysis; assay type: ADME; conditions: parengyodontium album
[30] = Stability of the compound assessed as Tritirachium album proteinase K-mediated compound hydrolysis by measuring compound helicity by CD spectroscopy; assay type: ADME; conditions: parengyodontium album

Compound	MIC95 (Pseudomonas aeruginosa [1])	MIC95 (Pseudomonas aeruginosa [2])	MIC95 (Salmonella typhimurium [3])	MIC95 (Acinetobacter baumannii)	IC50 (HEK-293T)	Ratio [4]	Ratio [5]	Ratio [6]	MBC (Escherichia coli [7])	MBC (Escherichia coli [8])	MBC (Escherichia coli [9])	MBC (Escherichia coli [10])	MBC (Escherichia coli [11])	MBC (Escherichia coli [12])	MBC (Escherichia coli [13])	MBC (Escherichia coli [14])	MBC (Escherichia coli [15])	MBC (Escherichia coli [16])	MBC (Escherichia coli [18])	MBC (Pseudomonas aeruginosa [19])	also measured
CC[C@H](C)[C@H](NC(=O)CN)C(=O)NCC(=O)N[C@@H](C)C(=O)N[C@H](C(=O)N[C@@H](CC(C)C)C(=O)N[C@@H](CCCCN)C(=O)N[C@H](C(=O)N[C@@H](CC(C)C)C(=O)N[C@H](C(=O)N[C@H](C(=O)NCC(=O)N[C@@H](CC(C)C)C(=O)N1CCC[C@H]1C(=O)N[C@@H](C)C(=O)N[C@@H](CC(C)C)C(=O)N[C@H](C(=O)N[C@@H](CO)C(=O)N[C@@H](Cc1c[nH]c2ccccc12)C(=O)N[C@H](C(=O)N[C@@H](CCCCN)C(=O)N[C@@H](CCCNC(=N)N)C(=O)N[C@@H](CCCCN)C(=O)N[C@@H](CCCNC(=N)N)C(=O)N[C@@H](CCC(N)=O)C(=O)N[C@@H](CCC(N)=O)C(N)=O)[C@@H](C)CC)[C@@H](C)CC)[C@@H](C)O)[C@@H](C)O)C(C)C)C(C)C [MELITTIN]	2 µM (≈ 5.69 µg/mL)	2 µM (≈ 5.69 µg/mL)	1 µM (≈ 2.85 µg/mL)	1 µM (≈ 2.85 µg/mL)	2.48 µM	0.92	1.14	1.31	4 µM	8 µM	2 µM	2 µM	4 µM	64 µM	> 64 µM	16 µM	> 64 µM	4 µM	1 µM (≈ 2.85 µg/mL)	4 µM (≈ 11.4 µg/mL)	Activity (Escherichia coli [17]): Active; MBC (Pseudomonas aeruginosa [20]): 2 µM (≈ 5.69 µg/mL); MBC (Pseudomonas aeruginosa [21]): 2 µM (≈ 5.69 µg/mL); MBC (Pseudomonas aeruginosa [22]): 4 µM (≈ 11.4 µg/mL); MBC (Pseudomonas aeruginosa [23]): 4 µM (≈ 11.4 µg/mL); MBC (Salmonella typhimurium [24]): 2 µM (≈ 5.69 µg/mL); Activity (Escherichia coli [25]): Active
H-IKPIIKPIIKPIIKPIIKPIIKPIIKPI-NH2	> 64 µM	> 64 µM	64 µM	2 µM	5920 µM	7.03	162.49	9.46	> 128 µM	> 128 µM	64 µM	16 µM	64 µM	> 128 µM	16 µM	16 µM	16 µM	16 µM	16 µM	> 64 µM	IC50 [26]: 345 µM; Activity (Escherichia coli [27]): Active; MBC (Pseudomonas aeruginosa [20]): > 64 µM; MBC (Pseudomonas aeruginosa [21]): > 64 µM; MBC (Pseudomonas aeruginosa [22]): > 64 µM; MBC (Pseudomonas aeruginosa [23]): > 64 µM; MBC (Salmonella typhimurium [24]): > 64 µM; hemolysis at 1 h, up to 128 µM [28]: < 5%; Stability (Trypsin): Stable; Stability (Chymotrypsin): Stable; Stability [29]: Stable; Stability [30]: Unstable
